One experiment relates to STZ diabetic rats. Put plainly: Anti-diabetic efficacy in streptozotocin (STZ) diabetic rats (FBG, IPGTT, IPITT, fluid balance, insulin/glucagon content). Format: in vivo, rat. As to the method:
Male Sprague-Dawley (SD) rats weighing 250-275 gr were fed ad libitum (Harlan Teklad 2018), had free access to water, and were kept on a 12:12 h light:dark cycle. Experimental type 1 diabetes (T1D) was induced in overnight fasted rats by a single intra-peritoneal injection of streptozotocin (STZ, 60 mg/kg body weight, Sigma Aldrich) freshly prepared in 0.1 M of cold citrate buffer (pH 4.5), followed by oral 10% glucose solution for the next 24 hours to overcome STZ-induced acute hypoglycemia. STZ diabetic rats (defined as having a fasting blood glucose (FBG) level higher than 300 mg/dl) were selected for further studies.
SHAM (control) rats were injected with 0.1 M of cold citrate buffer (pH 4.5). STZ diabetic or SHAM rats were dosed twice daily by gavage (orally) with 1% CMC (Sigma Aldrich C5678), or with HOOC—C(CH3)2—(CH2)12—C(CH3)2—COOH (2,2,15,15-tetramethylhexadecane-1,16-dioic acid) also termed herein “MEDICA16αα”, “Medica16αα” or M16αα(15 mg/kg body weight) suspended in 1% CMC, or injected intraperitoneal (i.p.) with Neutral Protamine Hagedorn (NPH) insulin (3 u/kg body weight b.i.d), as indicated.
(§1) Administering a combination of Medica16αα and insulin was performed by treating STZ diabetic rats (FBG >300 mg/dl) with oral MEDICA16αα(15 mg/kg b.i.d) for five consecutive days, then MEDICA16αα-responsive rats were further treated with MEDICA16αα(15 mg/kg b.i.d) for 10 additional consecutive days (“STZ/MEDICA Res”), and MEDICA16αα non-responsive rats (FBG >250 mg/dl) were further treated for 10 additional consecutive days with either insulin Neutral Protamine Hagedorn (NPH) (3 u/kg b.i.d subcutaneously) (“STZ/NPH”), or with insulin NPH (3 u/kg b.i.d subcutaneously in combination with oral MEDICA16αα(15 mg/kg b.i.d) (“STZ/MEDICA NPH”).
Tail vein FBG was verified daily by a glucometer (Glucometer®, Accu-Check® Performa, Roche Diagnostics). Urine secretion, food and water consumption were measured in standard metabolic cages (Tecniplast™ Metabolic Cage Systems for Rodents) for 48 hour periods. Samples were collected and recorded every 12 hour.
Overnight fasted rats were injected i.p (1 gr glucose/kg bw) with 20% dextrose solution (Teva Medical). Tail vein blood was sampled on 0, 30, 60, 90 and 120 minutes following glucose injection.
Fasted rats (5 hours fast) were injected i.p (2 u/kg bw) with HumulinR insulin (Eli Lilly). Tail blood glucose levels were measured by glucometer at 0, 15, 30, 60, and 120 min following insulin injection.
(§2) Pancreas and plasma insulin and glucagon content were determined by insulin (Millipore, Cat #RI-13K) and glucagon (Millipore, Cat # GL-32K) radioimmunoassay (RIA) kits. cAMP levels were measured by cAMP kit (Arbor Assays, DetectX Cat # K019-H1).

For the next experiment, the system named is hepatic gluconeogenesis. Put plainly: Suppression of hepatic gluconeogenesis in STZ diabetic rats (RT-PCR, Western blot, cAMP kit). Format: in vivo, rat. How it is done:
as §1
Sampled frozen tissue was homogenized (Polytron) in lysis buffer (50 mM Tris HCl, pH 8.0, 1% Triton X-100, 1 mM EGTA, 1 mM EDTA, 150 mM NaCl, 5 mM NaPPi, 50 mM NaF, 1 mM PMSF, 1 mM Na Vanadate, 40 nM bpVfan and protease inhibitor cocktail (Sigma)), and centrifuged for 15 min at 12,500 rpm.
Protein lysates were prepared in sodium dodecyl sulfate (SDS) sample buffer (62 mM Tris (pH 6.8), 2.3% SDS, […] mercaptoethanol, 10% glycerol), and were subjected to SDS-PAGE, electro-transferred onto cellulose nitrate membranes (Schleicher & Schuell) and probed with the indicated first antibody, followed by HRP-labeled second antibody. Protein concentration was determined by BCA (Thermo Scientific). Bands were detected by ECL, and the intensity of individual bands was determined by densitometry using ImageJ 1.48 v software.
Sampled frozen tissue was homogenized (Polytron) in lysis buffer (50 mM Hepes (pH 7.4), 150 mM NaCl, 10% Glycerol, 1.5 mM MgCl2, 1 mM EGTA, 1% Triton, 50 mM β-glycerolphosphate, 25 mM NaF, 1 mM Na-vanadate, 40 nM bpVphen, protease inhibitor mix (Sigma) and 17.5 mg/ml octyl beta-D-glucopyranoside (Sigma)). Lysates were kept on ice for 30 min and centrifuged at 12000 rpm for 15 min. Lysates ([…]) were incubated for 4 h with protein A/G beads (Santa Cruz Biotechnology) pre-loaded with the indicated antibody. The immune-precipitate was rinsed 3 times with washing buffer (20 mM Hepes (pH 7.4), 150 mM NaCl, 0.1% Tx-100, 10% glycerol), re-suspended in SDS sample buffer, boiled for 8 min, and analyzed by SDS-PAGE.
Total RNA was prepared using the TRI reagent (Sigma Aldrich). First-strand cDNA used as template was synthesized by reverse transcription using oligo(dT) as primer and the Reverse-iTMAX First Strand Kit (ABgene, Epson). Glucose-6-phosphatase (G6Pase) and phosphoenolpyruvate carboxykinase (PEPCK) transcripts normalized by tubulin were quantified by real-time PCR (Rotor Gene RG-3000A) using SYBER green MasterMix (Absolute Syber Green ROX Mix, ABgene) and the following primers: […]
as §2

In the case of `CC(C)(CCCCCCCCCCCCC(C)(C)C(=O)O)C(=O)O` [MEDICA16αα, 2,2,15,15-tetramethylhexadecane-1,16-dioic acid], in the experiment with STZ diabetic rats (STZ diabetic rats, stand-alone treatment), the “pancreatic and/or plasma insulin and glucagon content” value was “not accounted for by significant increase in pancreatic and/or plasma insulin, neither by significant decrease in glucagon content”. For the same compound, the “fluid consumption and excretion” value in the experiment on STZ diabetic rats (STZ/MEDICA Res rats, stand-alone) is given as “partial decrease”. For the same compound, the “blood glucose level in i.p glucose tolerance test (IPGTT)” value in the experiment on STZ diabetic rats (STZ/MEDICA Res rats, stand-alone 15 mg/kg b.i.d) is “amelioration in blood glucose level”. Also, the “STZ diabetic rats in which FBG was normalized (FBG<250 mg/dL)” value in the experiment with STZ diabetic rats (oral 15 mg/kg b.i.d, 10 consecutive days, stand-alone (no insulin), all-or-none response) is on record as “about 40%”. In the experiment on STZ diabetic rats (oral 15 mg/kg b.i.d, stand-alone), the “treated STZ diabetic rats that remained non responsive (FBG >250 mg/dl)” value worked out at 60%. In the experiment on hepatic gluconeogenesis, the “hepatic cAMP levels” value is on record as “suppressing hepatic cAMP levels” and the “hepatic phospho-ACC(Ser79) (AMPK activation)” value is “phosphorylation of its downstream ACC(Ser79) substrate”.
